“And” between values parts separate entries of the source, which are not always exact repeats. Identical values can stand only once. Inconclusive results and toxic doses are left out. The calls were made as follows: active = survival T/C of 150% or more; inactive = T/C below 125% in these data.
Tested on: P388 leukemia ip, CD2F1 mice, survival T/C
Assay: NCI In Vivo Anticancer Drug Screen. Data for tumor model P388 Leukemia (intraperitoneal) in CD2F1 (CDF1) mice
Conditions: endpoint: median survival time, higher = longer survival
Outline: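 Mice carrying the transplanted tumor received test compound or vehicle. Survival was recorded in each group, and the value is the treated-group measurement divided by that of the vehicle-treated control group.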

[1] = dose: 50.0 mg/kg/injection, schedule: Q01DX005 (ip), vehicle: saline with Tween-80
[2] = dose: 100.0 mg/kg/injection, schedule: Q01DX005 (ip), vehicle: saline with Tween-80
[3] = dose: 200.0 mg/kg/injection, schedule: Q01DX005 (ip), vehicle: saline with Tween-80
[4] = dose: 50.0 mg/kg/injection, schedule: Q01DX009 (ip), vehicle: saline
[5] = dose: 100.0 mg/kg/injection, schedule: Q01DX009 (ip), vehicle: saline
[6] = dose: 200.0 mg/kg/injection, schedule: Q01DX009 (ip), vehicle: saline
[7] = dose: 12.5 mg/kg/injection, schedule: Q01DX005 (ip), vehicle: Klucel (hydroxypropylcellulose) (HPC)
[8] = dose: 25.0 mg/kg/injection, schedule: Q01DX005 (ip), vehicle: Klucel (hydroxypropylcellulose) (HPC)
[9] = dose: 50.0 mg/kg/injection, schedule: Q01DX005 (ip), vehicle: Klucel (hydroxypropylcellulose) (HPC)
[10] = dose: 100.0 mg/kg/injection, schedule: Q01DX005 (ip), vehicle: Klucel (hydroxypropylcellulose) (HPC)
[11] = dose: 100.0 mg/kg/injection, schedule: Q01DX001 (ip), vehicle: saline with Tween-80
[12] = dose: 200.0 mg/kg/injection, schedule: Q01DX001 (ip), vehicle: saline with Tween-80
[13] = dose: 400.0 mg/kg/injection, schedule: Q01DX001 (ip), vehicle: saline with Tween-80
[14] = dose: 50.0 mg/kg/injection, schedule: Q01DX009 (ip), vehicle: saline with Tween-80
[15] = dose: 100.0 mg/kg/injection, schedule: Q01DX009 (ip), vehicle: saline with Tween-80
[16] = dose: 200.0 mg/kg/injection, schedule: Q01DX009 (ip), vehicle: saline with Tween-80
[17] = dose: 100.0 mg/kg/injection, schedule: Q01DX009 (ip), vehicle: Klucel (hydroxypropylcellulose) (HPC)
[18] = dose: 200.0 mg/kg/injection, schedule: Q01DX009 (ip), vehicle: Klucel (hydroxypropylcellulose) (HPC)
[19] = dose: 60.0 mg/kg/injection, schedule: Q01DX005 (ip), vehicle: saline with Tween-80
[20] = dose: 120.0 mg/kg/injection, schedule: Q01DX005 (ip), vehicle: saline with Tween-80
[21] = dose: 240.0 mg/kg/injection, schedule: Q01DX005 (ip), vehicle: saline with Tween-80
[22] = dose: 100.0 mg/kg/injection, schedule: Q01DX009 (ip), vehicle: other
[23] = dose: 200.0 mg/kg/injection, schedule: Q01DX009 (ip), vehicle: other
[24] = dose: 6.25 mg/kg/injection, schedule: Q01DX009 (ip), vehicle: saline with Tween-80
[25] = dose: 100.0 mg/kg/injection, schedule: Q01DX001 (ip), vehicle: Klucel (hydroxypropylcellulose) (HPC)
[26] = dose: 400.0 mg/kg/injection, schedule: Q01DX001 (ip), vehicle: Klucel (hydroxypropylcellulose) (HPC)
[27] = dose: 200.0 mg/kg/injection, schedule: Q01DX005 (ip), vehicle: Klucel (hydroxypropylcellulose) (HPC)

Measured: T/C

O=C(NC(Cc1ccc(OC(=O)OCc2ccccc2)cc1)C(=O)O)OCc1ccccc1 (stereo unspecified)
inactive: [1] 99 % of control | [2] 90 % of control | [3] 101 % of control

NC(=O)c1cc(Br)ccc1[N+](=O)[O-]
inactive: [4] 97 % of control | [5] 97 % of control | [6] 87 % of control

O=C(O)C1C(C(=O)O)C2C(=O)C=CC1N2Cc1ccccc1 (stereo unspecified)
inactive: [7] 105 % of control | [8] 99 % of control and 116 % of control | [9] 112 % of control and 114 % of control and 115 % of control | [10] 103 % of control and 118 % of control and 122 % of control

C[n+]1c(-c2ccc(/C=N/Nc3n[nH]c(=S)n3/N=C/c3ccc(-c4cn5ccsc5[n+]4C)cc3)cc2)cn2ccsc21
inactive: dose: 1.87 mg/kg/injection, schedule: Q01DX005 (ip), vehicle: saline with Tween-80 101 % of control

c1cnn(P2(n3cccn3)=NP(n3cccn3)(n3cccn3)=NP(n3cccn3)(n3cccn3)=NP(n3cccn3)(n3cccn3)=NP(n3cccn3)(n3cccn3)=NP(n3cccn3)(n3cccn3)=N2)c1
inactive: [11] 100 % of control | [12] 100 % of control | [13] 98 % of control

CC1(C)COC(=O)C(C(=O)O)=C1C(=O)O
inactive: [14] 90 % of control | [15] 87 % of control | [16] 90 % of control

COc1cccc2cc3c(cc12)C(=O)C(C)=C(C)C3=O
inactive: dose: 100.0 mg/kg/injection, schedule: Q04DX003 (ip), vehicle: Klucel (hydroxypropylcellulose) (HPC) 94 % of control | dose: 200.0 mg/kg/injection, schedule: Q04DX003 (ip), vehicle: Klucel (hydroxypropylcellulose) (HPC) 97 % of control | dose: 400.0 mg/kg/injection, schedule: Q04DX003 (ip), vehicle: Klucel (hydroxypropylcellulose) (HPC) 109 % of control

CN(C)CCC(=O)C(=C/C=C/c1ccccc1)C(=O)CCN(C)C
inactive: dose: 25.0 mg/kg/injection, schedule: Q01DX005 (ip), vehicle: saline with Tween-80 100 % of control | [1] 121 % of control | [2] 123 % of control

CC(C)COC(=O)CN(CC(=O)OCC(C)C)c1ccccc1
inactive: dose: 100.0 mg/kg/injection, schedule: Q04DX003 (ip), vehicle: saline with Tween-80 109 % of control | dose: 200.0 mg/kg/injection, schedule: Q04DX003 (ip), vehicle: saline with Tween-80 104 % of control | dose: 400.0 mg/kg/injection, schedule: Q04DX003 (ip), vehicle: saline with Tween-80 113 % of control

[Cl][Pt+2]([Cl])([Cl])[Cl].[Na+].[S-]c1ncnc2nc[nH]c12.[S-]c1ncnc2nc[nH]c12
inactive: dose: 132.0 mg/kg/injection, schedule: Q01DX009 (ip), vehicle: saline with Tween-80 100 % of control | [16] 109 % of control

CC(C)(C)SC(=S)SCC(=O)c1cc2cc(Br)ccc2o1
inactive: [1] 89 % of control | [2] 96 % of control | [3] 93 % of control

CC(=O)OC1C(=O)OC(=O)C(OC(C)=O)C1OC(C)=O (stereo unspecified)
inactive: [4] 100 % of control | [5] 93 % of control | [6] 100 % of control

COc1ccc(C(=O)Nc2cccnc2)cc1
inactive: dose: 50.0 mg/kg/injection, schedule: Q01DX009 (ip), vehicle: Klucel (hydroxypropylcellulose) (HPC) 98 % of control | [17] 100 % of control | [18] 98 % of control

COc1cc2c(cc1OC)-c1c(oc3c(CCC(C)C)c(O)ccc3c1=O)CO2
inactive: dose: 6.25 mg/kg/injection, schedule: Q01DX005 (ip), vehicle: Klucel (hydroxypropylcellulose) (HPC) 99 % of control | [7] 92 % of control and 94 % of control | [8] 88 % of control and 94 % of control | [9] 86 % of control | [10] 86 % of control

O=C1Cn2c(c3c(nc2=O)CCCC3)N1
inactive: [19] 100 % of control | [20] 99 % of control | [21] 100 % of control

Nc1c(Cl)sc2ccccc2c1=O
inactive: [1] 91 % of control | [2] 91 % of control | [3] 104 % of control

COc1cc(Br)c(C(=O)Nc2ccccc2)cc1OC
inactive: dose: 25.0 mg/kg/injection, schedule: Q01DX009 (ip), vehicle: other 97 % of control | dose: 50.0 mg/kg/injection, schedule: Q01DX009 (ip), vehicle: other 97 % of control | [22] 91 % of control | [23] 97 % of control | dose: 400.0 mg/kg/injection, schedule: Q01DX009 (ip), vehicle: other 97 % of control

COc1ccc(/C=N/Nc2ccccc2)cc1
inactive: [14] 99 % of control | [15] 92 % of control | [16] 99 % of control | dose: 400.0 mg/kg/injection, schedule: Q01DX009 (ip), vehicle: saline with Tween-80 94 % of control

CN(C)c1ccc(/C=C/c2ccc(Br)cc2)cc1
inactive: [14] 89 % of control | [15] 88 % of control | [16] 89 % of control

O=c1cc(-c2ccccc2)ss1
inactive: [22] 110 % of control | [23] 110 % of control

N#CCc1ccc(Cl)c(Cl)c1
inactive: [24] 104 % of control | dose: 12.5 mg/kg/injection, schedule: Q01DX009 (ip), vehicle: saline with Tween-80 100 % of control | dose: 12.5 mg/kg/injection, schedule: Q04DX003 (ip), vehicle: saline with Tween-80 100 % of control | dose: 25.0 mg/kg/injection, schedule: Q01DX009 (ip), vehicle: saline with Tween-80 100 % of control | dose: 25.0 mg/kg/injection, schedule: Q04DX003 (ip), vehicle: saline with Tween-80 100 % of control

Clc1ccc(C#Cc2ccc(Cl)cc2)cc1
inactive: dose: 3.13 mg/kg/injection, schedule: Q01DX009 (ip), vehicle: saline with Tween-80 109 % of control | [24] 113 % of control

O=C(O)c1ccc2c(c1)S(=O)(=O)NC2=O
inactive: [19] 95 % of control | [20] 99 % of control | [21] 101 % of control

CC(=O)C1=C(C(C)=O)C2(C)OC1(C)c1ccccc12
inactive: [25] 107 % of control | dose: 200.0 mg/kg/injection, schedule: Q01DX001 (ip), vehicle: Klucel (hydroxypropylcellulose) (HPC) 104 % of control | [26] 99 % of control

CCC(c1ccc(OC)cc1)C(NC(=S)Nc1cccc(C)c1)c1ccc(OC)cc1 (stereo unspecified)
inactive: [11] 90 % of control | [12] 92 % of control | [13] 93 % of control

CCOC(=O)C(=O)c1ccc(N(C)C)cc1
inactive: [17] 107 % of control | [18] 100 % of control | dose: 400.0 mg/kg/injection, schedule: Q01DX009 (ip), vehicle: Klucel (hydroxypropylcellulose) (HPC) 97 % of control

CN(CCC(C#N)c1ccccc1)Cc1ccccc1 (stereo unspecified)
inactive: [9] 92 % of control | [10] 101 % of control

Cc1cc2cc3c4c(nn5cnnc5c4c2o1)-c1ccccc1CC3
inactive: [9] 101 % of control | [10] 104 % of control | [27] 98 % of control

CC(=O)N=C1CSc2ccccc2N1C
inactive: dose: 50.0 mg/kg/injection, schedule: Q01DX005 (ip), vehicle: saline + alcohol 99 % of control | dose: 100.0 mg/kg/injection, schedule: Q01DX005 (ip), vehicle: saline + alcohol 103 % of control | dose: 200.0 mg/kg/injection, schedule: Q01DX005 (ip), vehicle: saline + alcohol 109 % of control

C(=N\NC1=NCCN1)/c1c[nH]c2ccccc12
inactive: [1] 101 % of control | [2] 97 % of control

Nc1nnc(Cc2nnc(N)o2)o1
inactive: [1] 101 % of control | [2] 101 % of control | [3] 98 % of control

CC(O)CC1(c2ccccc2)CNC(=O)NC1=O (stereo unspecified)
inactive: dose: 25.0 mg/kg/injection, schedule: Q01DX001 (ip), vehicle: Klucel (hydroxypropylcellulose) (HPC) 94 % of control | dose: 50.0 mg/kg/injection, schedule: Q01DX001 (ip), vehicle: Klucel (hydroxypropylcellulose) (HPC) 94 % of control | [25] 99 % of control and 106 % of control | [26] 92 % of control

CCOc1cc2c(cc1C(C)c1cc(OC)c(OC)c(OC)c1)OCO2 (stereo unspecified)
inactive: [9] 96 % of control | [10] 102 % of control | [27] 96 % of control
